From article PMC10726440, “N-Biphenyl Pyrrolinones and Dibenzofurans as RNA-Binding Protein LIN28 Inhibitors Disrupting the LIN28–Let-7 Interaction” (ACS Medicinal Chemistry Letters, 2023)
Values joined by “and” are separate entries in the source; they are usually repeats but may differ in a detail not shown here. Identical values can stand only once. Like-named read-outs stand apart in the source and are kept apart here.

Target: T1, LIN28A(16–187)–let-7 interaction (Homo sapiens, UniProt Q9H9Z2)
T1 construct: LIN28A(16–187) or LIN28B(24–111); pET19a or pMAL vector) (cleaved yes); made in house; host or cells: Escherichia coli BL21(DE3)
T1 sequence (Q9H9Z2 16-187): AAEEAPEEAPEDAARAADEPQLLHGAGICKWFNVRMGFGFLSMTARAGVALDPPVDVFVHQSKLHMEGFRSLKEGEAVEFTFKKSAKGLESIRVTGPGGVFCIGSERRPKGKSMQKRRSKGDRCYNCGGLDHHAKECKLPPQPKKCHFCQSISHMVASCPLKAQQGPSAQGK
Test: Electrophoretic mobility shift assay (EMSA), disruption of LIN28–let-7 complex
Type: binding
Details: for IC50: concentration-dependent EMSA, some values estimated, read-out: IC50 in dose–response EMSA; for inhibition at 75 µM: read-out: inhibition of the LIN28–let-7 interaction measured in EMSA; for inhibition of LIN28–let-7 complex formation in concentration-dependent EMSA (in words): dose–response EMSA
Method: Inhibition of the LIN28–let-7 complex was evaluated by electrophoretic mobility shift assays. Mixtures containing compound at indicated concentrations, LIN28A(16–187) or LIN28B(24–111), and recombinant ribonuclease inhibitor (TaKaRa Bio) were incubated at room temperature for 2 h. The reaction buffer contained 50 mM TRIS, pH 7.5, 100 mM NaCl, 10 mM β-mercaptoethanol, 50 μM ZnCl2, 2% DMSO, 0.01% Tween-20 and 12% glycerol. Cy-3-fluorophore labeled RNA, (pre-E let-7f-1-Cy3, Mus musculus, […]-Cy3, purchased from IDT) was added to the reaction and incubated for further 15 min. The final concentrations were as follows: 10 nM LIN28A or 200 nM LIN28B, 5 nM RNA. Of each mixture, 10 μL was analyzed on a nondenaturing PAGE (5.3% acrylamide TAE PAGE for full-length LIN28 and 10% acrylamide TAE PAGE for analysis of the CSD) prerun for 1 h without sample and run for 1 h at 220 V at 4 °C in 0.25× TAE buffer. Gels were imaged using a ChemiDoc MP instrument (Bio-Rad Laboratories). Band intensities were analyzed using ImageJ and inhibition was quantified by calculation of the ratio of free RNA fluorescence to the fluorescence of the protein–RNA complex, and normalization to free RNA and LIN28–let-7 complex controls. The intensity ratio was analyzed by nonlinear regression fit in GraphPad Prism to determine the IC50 values.

[1] = single concentration of 75 μM, 75 µM

SMILES | inhibition at 75 µM (single concentration of 75 μM) | inhibition of the LIN28–let-7 interaction measured in EMSA (single concentration of 75 μM) | also measured
Nc1ccc(C2C(C(=O)c3ccccc3)=C(O)C(=O)N2c2ccc(O)c(C(=O)O)c2)cc1 (stereo not shown) [Compound 10] | 84.1% |  | IC50: < 15 µM and 5 to 15 µM
O=C(C1=C(O)C(=O)N(c2cccc(-c3ccccc3)c2)C1c1ccc([N+](=O)[O-])cc1)c1nccs1 (stereo not shown) [Compound 38] | 8% |  | 
Cn1cccc1C(=O)C1=C(O)C(=O)N(c2cccc(-c3ccccc3)c2)C1c1ccc([N+](=O)[O-])cc1 (stereo not shown) [Compound 37] | 75% |  | 
O=C(C1=C(O)C(=O)N(c2ccc3oc4ccccc4c3c2)C1c1ccc([N+](=O)[O-])cc1)c1ccc(F)cc1 (stereo not shown) [Compound 43] | 60% |  | 
Cc1ccc(C(=O)C2=C(O)C(=O)N(c3ccc(O)c(C(=O)O)c3)C2c2ccc([N+](=O)[O-])cc2)cc1 (stereo not shown) [Compound 3] | ≥ 60% |  | IC50: 33 µM
O=C(C1=C(O)C(=O)N(c2cccc(-c3ccccc3)c2)C1c1ccc([N+](=O)[O-])cc1)C1CCC1 (stereo not shown) [Compound 26] | 8% |  | 
O=C(O)c1cc(N2C(=O)c3c(c(-c4ccccc4)nn3Cc3ccccc3)C2c2ccc([N+](=O)[O-])cc2)ccc1O (stereo not shown) [Compound 15] |  | inactive | 
O=C(C1=C(O)C(=O)N(c2ccc(O)c(C(=O)O)c2)C1c1ccc([N+](=O)[O-])cc1)c1ccccc1 (stereo not shown) [Compound 2] |  | not active | 
O=C(C1=C(O)C(=O)N(c2cccc(-c3ccccc3)c2)C1c1ccc([N+](=O)[O-])cc1)c1ccc(C(F)(F)F)cc1 (stereo not shown) [Compound 39] | 40% |  | 
O=C(C1=C(O)C(=O)N(c2cccc(-c3ccccc3)c2)C1c1ccc([N+](=O)[O-])cc1)c1ccc(F)cc1 (stereo not shown) [Compound 32] | 76% |  | 
O=C(C1=C(O)C(=O)N(c2ccc(O)c(C(=O)O)c2)C1c1ccc2[nH]nnc2c1)c1ccccc1 (stereo not shown) [Compound 6] | 95.4% |  | IC50: 20 µM and ~20 µM
O=C(C1=C(O)C(=O)N(c2cccc(-c3ccccc3)c2)C1c1ccc([N+](=O)[O-])cc1)c1ccc(Br)cc1 (stereo not shown) [Compound 30] | 73% |  | 
O=C(C1=C(O)C(=O)N(c2ccc3oc4ccccc4c3c2)C1c1ccc([N+](=O)[O-])cc1)c1ccco1 (stereo not shown) [Compound 44] | 90% |  | 
COc1ccc(CN/C(=C2\C(=O)C(=O)N(c3ccc(O)c(C(=O)O)c3)C2c2ccc([N+](=O)[O-])cc2)c2ccccc2)cc1 (stereo not shown) [Compound 13] | 102% | active | IC50: 26 µM
COc1ccc(C(=O)C2=C(O)C(=O)N(c3cccc(-c4ccccc4)c3)C2c2ccc([N+](=O)[O-])cc2)cc1 (stereo not shown) [Compound 31] | 87% |  | 
O=C(C1=C(O)C(=O)N(c2ccc(O)c(C(=O)O)c2)C1c1ccc2cnccc2c1)c1ccccc1 (stereo not shown) [Compound 9] | 99.9% |  | IC50: < 15 µM and ~5 µM
O=C(C1=C(O)C(=O)N(c2cccc(-c3ccccc3)c2)C1c1ccc([N+](=O)[O-])cc1)c1ccc([N+](=O)[O-])c(O)c1 (stereo not shown) [Compound 34] |  |  | inhibition at 75 µM: 49%
O=C(C1=C(O)C(=O)N(c2ccc3oc4ccccc4c3c2)C1c1ccc([N+](=O)[O-])cc1)c1ccc(Br)cc1 (stereo not shown) [Compound 41] | 53% |  | 
O=C(C1=C(O)C(=O)N(c2ccc(O)c(C(=O)O)c2)C1c1ccc2cn[nH]c2c1)c1ccccc1 (stereo not shown) [Compound 7] | 70.7% |  | IC50: 34 µM
N=C1CC=CC=C1C1=C(N)C(=O)N(c2ccc(O)c(C(=O)O)c2)[C@@H]1c1ccc([N+](=O)[O-])cc1 [Compound 23] |  | inactive | inhibition of the LIN28–let-7 interaction measured in EMSA [1]: none of these aforementioned enantiomerically pure molecules were active
O=C(C1=C(O)C(=O)N(c2ccc(O)c(C(=O)O)c2)[C@@H]1c1ccc([N+](=O)[O-])cc1)c1ccc(Cl)cc1 [Compound 16] |  | none of these aforementioned enantiomerically pure molecules were active | 

SMILES | inhibition at 75 µM (single concentration of 75 μM) | inhibition of the LIN28–let-7 interaction measured in EMSA (single concentration of 75 μM) | also measured
COc1ccc(C(=O)C2=C(O)C(=O)N(c3ccc4c(c3)oc3ccccc34)C2c2ccc([N+](=O)[O-])cc2)cc1 (stereo not shown) [Compound 47] | 87% |  | 
O=C(C1=C(O)C(=O)N(c2ccc(O)c(C(=O)O)c2)C1c1ccc([N+](=O)[O-])cc1)c1ccccn1 (stereo not shown) [Compound 4] |  |  | IC50: 19 µM and ~19 µM
O=C(C1=C(O)C(=O)N(c2cccc([N+](=O)[O-])c2)[C@@H]1c1ccc([N+](=O)[O-])cc1)c1ccccc1 [Compound 21] |  | none of these aforementioned enantiomerically pure molecules were active | 
O=C(C1=C(O)C(=O)N(c2ccc3c(c2)oc2ccccc23)C1c1ccc([N+](=O)[O-])cc1)c1ccccc1 (stereo not shown) [Compound 45] | 97% |  | inhibition of LIN28–let-7 complex formation in concentration-dependent EMSA (in words): best inhibitory activities among the evaluated molecules
NC1=C(C(=O)c2ccccc2)[C@@H](c2ccc([N+](=O)[O-])cc2)N(c2ccc(O)c(C(=O)O)c2)C1=O [Compound 22] |  | inactive | inhibition of the LIN28–let-7 interaction measured in EMSA [1]: none of these aforementioned enantiomerically pure molecules were active
O=C(C1=C(O)C(=O)N(c2ccc3c(c2)oc2ccccc23)C1c1ccc([N+](=O)[O-])cc1)c1ccco1 (stereo not shown) [Compound 49] | 95% |  | inhibition of LIN28–let-7 complex formation in concentration-dependent EMSA (in words): best inhibitory activities among the evaluated molecules
Cc1ccc(C(=O)C2=C(O)C(=O)N(c3cccc(-c4ccccc4)c3)C2c2ccc([N+](=O)[O-])cc2)o1 (stereo not shown) [Compound 36] | 83% |  | 
COc1ccc(C(=O)C2=C(O)C(=O)N(c3ccc4oc5ccccc5c4c3)C2c2ccc([N+](=O)[O-])cc2)cc1 (stereo not shown) [Compound 42] | 74% |  | 
O=C(C1=C(O)C(=O)N(c2ccc3oc4ccccc4c3c2)C1c1ccc([N+](=O)[O-])cc1)c1ccccc1 (stereo not shown) [Compound 40] | 94% |  | 
O=C(O)c1cc(N2C(=O)C(O)=C(c3nccs3)C2c2ccc([N+](=O)[O-])cc2)ccc1O (stereo not shown) [Compound 5] | ≥ 60% | active | IC50: 32 µM
O=C(C1=C(O)C(=O)N(c2cccc(-c3ccccc3)c2)C1c1ccc([N+](=O)[O-])cc1)c1ccco1 (stereo not shown) [Compound 35] | 87% |  | IC50: ~45 µM
O=C(C1=C(O)C(=O)N(CCCc2ccccc2)C1c1ccc([N+](=O)[O-])cc1)c1ccccc1 (stereo not shown) [Compound 12] | 76.5% |  | IC50: < 15 µM and 5 to 15 µM; inhibition of the LIN28–let-7 interaction measured in EMSA [1]: 77%
O=C(O)c1cc(N2C(=O)C(O)=C(Cc3ccccc3)[C@H]2c2ccc([N+](=O)[O-])cc2)ccc1O [Compound 19] |  | none of these aforementioned enantiomerically pure molecules were active | 
O=C(C1=C(O)C(=O)N(c2ccc3c(c2)oc2ccccc23)C1c1ccc([N+](=O)[O-])cc1)c1ccc(F)cc1 (stereo not shown) [Compound 48] | 93% |  | 
O=C(O)c1cc(N2C(=O)c3nn(Cc4ccccc4)c(-c4ccccc4)c3C2c2ccc([N+](=O)[O-])cc2)ccc1O (stereo not shown) [Compound 14] |  | inactive | 
O=C(C1=C(O)C(=O)N(c2cccc(-c3ccccc3)c2)C1c1ccc([N+](=O)[O-])cc1)C1CCCCC1 (stereo not shown) [Compound 24] | 49% |  | 
O=C(O)c1cc(N2C(=O)C(O)=C(Cc3ccccc3)[C@@H]2c2ccc([N+](=O)[O-])cc2)ccc1O [Compound 18] |  | none of these aforementioned enantiomerically pure molecules were active | 
O=C(C1=C(O)C(=O)N(c2ccc3c(c2)oc2ccccc23)C1c1ccc([N+](=O)[O-])cc1)c1ccc(Br)cc1 (stereo not shown) [Compound 46] | 86% |  | 
O=C(C1=C(O)C(=O)N(c2cccc([N+](=O)[O-])c2)[C@H]1c1ccc([N+](=O)[O-])cc1)c1ccccc1 [Compound 20] |  | none of these aforementioned enantiomerically pure molecules were active | 
O=C(C1=C(O)C(=O)N(c2cccc(-c3ccccc3)c2)C1c1ccc([N+](=O)[O-])cc1)c1ccccc1F (stereo not shown) [Compound 33] | 98% |  | 
O=C(C1=C(O)C(=O)N(c2ccc(O)c(C(=O)O)c2)[C@H]1c1ccc([N+](=O)[O-])cc1)c1ccc(Cl)cc1 [Compound 17] |  | none of these aforementioned enantiomerically pure molecules were active | 
